{
  "source": "paper PMC6394474",
  "about": "“Evaluation of the effects of formulation, food, or a proton-pump inhibitor on the pharmacokinetics of glasdegib (PF-04449913) in healthy volunteers: a randomized phase I study” (Cancer Chemotherapy and Pharmacology, 2018)",
  "key": {"[1]": {"experiment": "Phase I single-dose plasma pharmacokinetics of glasdegib tablet formulations in healthy volunteers (HPLC-MS/MS, noncompartmental analysis)", "format": "in vivo, human", "from_the_text": "This was a Phase I, randomized, open-label, three-period, four-sequence, four-treatment study in healthy volunteers. Subjects were randomized to one of four treatment sequences (Fig. 1). All subjects received three treatments with a washout period of at least 7 days between each administration period. The duration of each administration period was 6 days with the exception of PPI treatment, which was 12 days (including 6-day follow-up after glasdegib administration).\nNo food was allowed for at least 4 h after glasdegib dosing.\nFollowing a 10-h fast, subjects consumed a recommended high-fat (~ 50% of total caloric content of the meal), high-calorie meal (~ 800 to 1000 calories with 150, 250, and 500–600 calories from protein, carbohydrate, and fat, respectively).\nFollowing a 7-day washout period, rabeprazole 40 mg was administered daily for 7 days. On the day of PK sample collection (day 7 of rabeprazole administration), both rabeprazole and glasdegib were administered in the fasted state. Rabeprazole was administered 4 h before glasdegib. […]\nThe primary PK endpoints were AUCinf and Cmax of glasdegib. Additional PK endpoints were AUC from time 0 to the last quantifiable concentration (AUClast), time for Cmax (Tmax), plasma elimination half-life (t½), apparent oral clearance (CL/F), and apparent volume of distribution following oral dose (Vz/F).\nGlasdegib plasma concentrations were determined at Covance Bioanalytical Services (Shanghai, China) using a validated, sensitive, and specific high-performance liquid chromatography–tandem mass spectrometric (HPLC–MS/MS) method. […]\nCalibration curves were linear over the range of 3–3000 ng/mL for glasdegib in plasma, using a weighted (1/concentration^2) linear regression. The lower limit of quantification (LLOQ) of glasdegib was 3 ng/mL.\nGlasdegib PK parameters were calculated using noncompartmental analysis of plasma concentration–time data. […] AUClast was determined using the linear/log trapezoidal method. […] The t½ was calculated as loge(2)/Kel, CL/F was calculated as dose/AUCinf, and Vz/F was calculated as dose/(AUCinf × Kel). […]"}, "[2]": {"experiment": "Safety and tolerability: treatment-emergent adverse event monitoring in healthy subjects", "format": "in vivo, human", "description": "Safety and tolerability of glasdegib were assessed by adverse event (AE) monitoring and changes in clinical laboratory results, ECGs, and physical examination findings. AEs were graded according to the Medical Dictionary for Regulatory Activities version 20.0."}, "[3]": {"set-up": "method as in PMID 24900436", "conditions": "unpublished; cited from earlier work"}, "[4]": {"conditions": "weakly basic drug; higher solubility at acidic pH; cited from earlier work"}, "[5]": {"set-up": "method as in PMID 29086063", "conditions": "early maleate-salt tablet formulations, in the presence of PPIs, single 100-mg oral dose; cited from earlier work"}, "Hedgehog pathway": {"test_system": "Hedgehog pathway", "set-up": "method as in PMID 28556364", "conditions": "50 mg QD dose; skin; cited from earlier work"}, "[6]": {"conditions": "in the presence of a PPI (rabeprazole) vs fasted alone"}},
  "note": "Entries after “also recorded” stand apart in the source; their conditions may differ.",
  "data": [
    {"molecule": "CN1CC[C@@H](NC(=O)Nc2ccc(C#N)cc2)C[C@@H]1c1nc2ccccc2[nH]1", "note": "[glasdegib]", "values": [
      {"measurement": "decrease in geometric mean AUCinf", "setting": "[1]; high-fat, high-calorie meal vs fasted, single 100 mg oral dose", "result": 16, "unit": "%"},
      {"measurement": "change in geometric mean AUCinf", "setting": "[1]; [6]", "result": "did not result in a change"},
      {"measurement": "decrease in geometric mean Cmax", "setting": "[1]; [6]", "result": "~ 20%"},
      {"measurement": "deaths, serious AEs, severe AEs, dose reductions, discontinuations due to AEs", "setting": "[2]; all treatment arms", "result": "no deaths, serious AEs, severe AEs, dose reductions, or permanent/temporary discontinuations due to AEs"},
      {"measurement": "TEAEs reported across all treatment arms", "setting": "[2]; human, in vivo", "result": 17},
      {"measurement": "gastrointestinal disorders, share of all TEAEs", "setting": "[2]; human, in vivo", "result": 35, "unit": "%"},
      {"measurement": "severity of observed TEAEs", "setting": "[2]; human, in vivo", "result": "mild"},
      {"measurement": "subjects with TEAEs across all treatment arms", "setting": "[2]; human, in vivo", "result": 12},
      {"measurement": "Biopharmaceutical Classification System class", "setting": "[3]", "result": "II or IV"},
      {"measurement": "solubility (pH-dependent)", "setting": "[4]", "result": "drops substantially at pH ≥ 6.3; also recorded: decreasing solubility as pH increases"},
      {"measurement": "decrease in Cmax", "setting": "[5]", "result": 13, "unit": "%"},
      {"measurement": "increase in AUCinf", "setting": "[5]", "result": 12, "unit": "%"},
      {"measurement": "downregulation of the Hedgehog pathway", "setting": "Hedgehog pathway", "result": "consistent downregulation"}
    ]}
  ]
}
